Measurements: ChEMBL document CHEMBL4152365, “Discovery of DS-6930, a potent selective PPARγ modulator. Part I: Lead identification” (Bioorg Med Chem, 2018)
pEC50: −log10 of the molar value. ≈ marks a conversion by molar mass, not a printed value.

What was measured:
[1] = biological target: T1, Peroxisome proliferator-activated receptor gamma (Homo sapiens, UniProt P37231); experiment: Agonist activity at recombinant human GAL4-DBD fused PPARgamma LBD expressed in COS7 cells after 24 hrs by luciferase reporter gene assay; format: cell-based
T1 sequence (P37231 whole entry): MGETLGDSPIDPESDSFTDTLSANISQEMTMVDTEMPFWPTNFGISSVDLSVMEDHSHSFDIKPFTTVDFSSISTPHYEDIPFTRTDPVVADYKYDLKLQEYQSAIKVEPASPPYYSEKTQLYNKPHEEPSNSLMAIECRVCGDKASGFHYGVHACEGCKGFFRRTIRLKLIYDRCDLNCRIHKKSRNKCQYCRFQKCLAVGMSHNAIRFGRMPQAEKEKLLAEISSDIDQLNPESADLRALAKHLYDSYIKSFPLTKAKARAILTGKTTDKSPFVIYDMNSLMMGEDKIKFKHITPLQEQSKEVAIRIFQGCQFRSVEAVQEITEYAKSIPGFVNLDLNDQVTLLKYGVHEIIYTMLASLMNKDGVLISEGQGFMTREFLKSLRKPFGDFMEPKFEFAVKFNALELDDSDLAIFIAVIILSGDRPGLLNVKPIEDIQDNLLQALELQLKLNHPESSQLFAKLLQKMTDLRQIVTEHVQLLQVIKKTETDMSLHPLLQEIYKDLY

Mus musculus [2] = experiment: Toxicity in hyperglycemic KK/Ta mouse assessed as body weight gain at 30 mg/kg/day, po administered through diet for 3 days relative to control; format: organism-based; conditions: in vivo, 72 h
[3] = biological target: T2, Peroxisome proliferator-activated receptor gamma (Homo sapiens) (UniProt P37231); experiment: Agonist activity at recombinant human GAL4-DBD fused PPARgamma LBD expressed in COS7 cells at 10 uM after 24 hrs by luciferase reporter gene assay relative to rosiglitazone; format: cell-based
T2 sequence (whole entry): T1 sequence (P37231 whole entry)

[4] = Metabolic stability in human liver microsomes after 0.5 hrs; format: ADME, microsome; conditions: read-out: Stability
Mus musculus [5] = experiment: Glucose-lowering effect in hyperglycemic KK/Ta mouse assessed as reduction in plasma glucose level at 30 mg/kg/day, po administered through diet for 3 days relative to control; format: functional; set-up: scale not given: the % may be the effect or the level left
[6] = Plasma concentration in hyperglycemic KK/Ta mouse at 30 mg/kg/day, po administered through diet for 3 days measured on day 3 post last dose; format: ADME, organism-based
[7] = Aqueous thermodynamic solubility of the compound in pH 6.8 solution up to 4 hrs by HPLC-UV analysis; format: physicochemical; conditions: read-out: Therm_solubility
[8] = biological target: T3, Peroxisome proliferator-activated receptor alpha (Homo sapiens, UniProt Q07869); experiment: Agonist activity at recombinant human GAL4-DBD fused PPARalpha LBD expressed in COS7 cells after 24 hrs by luciferase reporter gene assay; format: cell-based
T3 sequence (Q07869 whole entry): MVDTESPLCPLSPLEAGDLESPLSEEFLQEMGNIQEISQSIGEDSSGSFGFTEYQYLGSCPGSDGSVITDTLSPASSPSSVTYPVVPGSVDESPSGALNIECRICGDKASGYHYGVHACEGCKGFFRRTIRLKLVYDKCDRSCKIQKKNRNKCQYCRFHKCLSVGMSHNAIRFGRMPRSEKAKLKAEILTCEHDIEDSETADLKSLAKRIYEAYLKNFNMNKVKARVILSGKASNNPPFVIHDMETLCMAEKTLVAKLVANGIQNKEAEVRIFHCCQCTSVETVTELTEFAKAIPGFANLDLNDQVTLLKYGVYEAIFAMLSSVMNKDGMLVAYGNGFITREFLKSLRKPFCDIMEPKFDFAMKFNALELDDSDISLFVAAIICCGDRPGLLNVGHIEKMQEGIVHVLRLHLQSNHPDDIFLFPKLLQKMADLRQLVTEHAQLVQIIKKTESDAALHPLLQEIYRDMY

[9] = biological target: T4, Peroxisome proliferator-activated receptor alpha (Homo sapiens) (UniProt Q07869); experiment: Agonist activity at recombinant human GAL4-DBD fused PPARalpha LBD expressed in COS7 cells at 10 uM after 24 hrs by luciferase reporter gene assay relative to 2-(4-tert-Butylphenoxy)-3-[4-[2-[(4-pyridin-2-ylbenzoyl)amino]ethoxy]; format: cell-based
T4 sequence (whole entry): T3 sequence (Q07869 whole entry)

[10] = 1-octanol/PBS distribution co-efficient, log D of the compound at […] at pH 7.4 after 30 mins by HPLC-MS/MS analysis; format: physicochemical

Structure (SMILES)	pEC50 [1]	Activity (Mus musculus [2]) [%]	Emax [3] [%]	remaining at 0.5 h [4] [%]	Activity (Mus musculus [5]) [%]	concentration at 72 h [6] [ng/mL]	solubility thermodynamic at 4 h [7] [µg/mL]	pEC50 [8]	Emax [9] [%]	logD at 0.5 h [10]
Cn1c(COc2cccc(C(=O)O)c2)nc2ccc(Oc3cc(F)cc(Cl)c3)cc21	7.64	3.1	78	78	57.5	370	0.9 (≈ 2.11 µM)	< 5.00	43	2.8
Cc1cc(Oc2ccc3nc(COc4ccccc4C#N)n(C)c3c2)cc(C)c1N	6.41	–	80	–	–	–	–	–	–	–
Cc1ccc(F)c(Oc2ccc3nc(COc4cccc(C(=O)O)c4)n(C)c3c2)c1	6.86	1.6	111	83	49.4	120	11 (≈ 27.1 µM)	< 5.00	37	2.4
Cc1cc(Oc2ccc3nc(COc4ccc(C#N)cc4)n(C)c3c2)cc(C)c1N	6.40	–	79	–	–	–	–	–	–	–
Cn1c(COc2cccc(C(=O)O)c2)nc2ccc(Oc3ccc4ccoc4c3)cc21	6.73	2.5	79	100	48.3	380	0.8 (≈ 1.93 µM)	< 5.00	37	2.4
Cc1cc(Oc2ccc3nc(COc4cccc(C(=O)O)c4)n(C)c3c2)cc(C)c1N.Cl.Cl	–	–	73	88	–	–	11	–	–	1.4
COc1ccc2nc(COc3ccc(CC4SC(=O)NC4=O)cc3)n(C)c2c1 (stereo unspecified) [RIVOGLITAZONE]	7.37	–	126	–	–	–	–	–	–	–
Cc1cc(Oc2ccc3nc(COc4cccc(C#N)c4)n(C)c3c2)cc(C)c1N	7.37	–	92	–	–	–	–	–	–	–
Cl.Cn1c(COc2cccc(C(=O)O)c2)nc2ccc(Oc3ccc(F)c(Cl)c3)cc21	7.19	3.7	79	–	30	170	–	–	52	2.8
Cc1cc(Oc2ccc3nc(COc4ccccc4C(=O)O)n(C)c3c2)cc(C)c1N	5.22	–	52	–	–	–	–	–	–	–
Cc1cc(F)cc(Oc2ccc3nc(COc4cccc(C(=O)O)c4)n(C)c3c2)c1	7.68	1.7	84	100	58.3	190	0.5 (≈ 1.23 µM)	< 5.00	29	2.7
Cn1c(COc2cccc(C(=O)O)c2)nc2ccc(Oc3cc(F)cc(F)c3)cc21	7.02	4.4	54	–	39.5	360	10 (≈ 24.4 µM)	< 5.00	33	2.3
Cc1cc(Oc2ccc3nc(COc4cccc(C(=O)O)c4)n(C)c3c2)ccc1F.Cl	7.21	3.5	61	69	49.4	190	–	< 5.00	28	2.3
Cn1c(COc2cccc(C(=O)O)c2)nc2ccc(Oc3cccc(F)c3F)cc21	6.64	4.3	86	88	35.8	–	–	–	52	2.1
Cl.Cn1c(COc2cccc(C(=O)O)c2)nc2ccc(Oc3ccc4c(c3)CCO4)cc21	7.06	–	60	87	–	–	7.6	< 5.00	8	1.7
Cc1cc(Oc2ccc3nc(COc4ccc(C(=O)O)cc4)n(C)c3c2)cc(C)c1N	6.10	–	91	–	–	–	–	–	–	–
CC(=O)c1ccc(OCc2nc3ccc(Oc4cc(C)c(N)c(C)c4)cc3n2C)cc1	6.47	–	70	–	–	–	–	–	–	–
Cn1c(COc2cccc(C(=O)O)c2)nc2ccc(Oc3c(F)cccc3F)cc21	5.88	–	76	85	–	–	–	< 5.00	19	1.8
Cc1ccc(F)cc1Oc1ccc2nc(COc3cccc(C(=O)O)c3)n(C)c2c1	7.41	5.1	84	64	26.4	–	0.6 (≈ 1.48 µM)	< 5.00	17	2.5
CCc1ccc2ccc(F)cc2c1CNC(=O)c1c(OC)cc(O)c2c1OC1=CC(O)=C(C(C)=O)C(=O)[C@]12C	7.92	–	64	–	–	–	–	–	–	–
CC(=O)c1cccc(OCc2nc3ccc(Oc4cc(C)c(N)c(C)c4)cc3n2C)c1	7.19	–	86	–	–	–	–	–	–	–
Cl.Cn1c(COc2cccc(C(=O)O)c2)nc2ccc(Oc3ccc(F)c(F)c3)cc21	6.93	3.4	71	100	56	160	–	< 5.00	39	2
Cc1cc(Oc2ccc3nc(COc4ccc(CC5SC(=O)NC5=O)cc4)n(C)c3c2)cc(C)c1N (stereo unspecified) [EFATUTAZONE]	10.42	–	100	–	–	–	–	–	–	–
Cc1cc(Oc2ccc3nc(COc4ccccc4)n(C)c3c2)cc(C)c1N	6.50	–	73	–	–	–	–	–	–	–
CC(=O)c1ccccc1OCc1nc2ccc(Oc3cc(C)c(N)c(C)c3)cc2n1C	6.45	–	96	–	–	–	–	–	–	–
